Data reported in article PMC6891695, “Evaluation of Antifouling Potential and Ecotoxicity of Secondary Metabolites Derived from Red Algae of the Genus Laurencia” (Marine Drugs, 2019).

How the values were obtained:
A. amphitrite cyprids = assay: Substrate exploration analysis: SIPC deposition by cyprids (anti-SIPC Western blot on wells); type: in vivo, Amphibalanus amphitrite; conditions: for effect on deposition of SIPC protein on the surface of the bioassay plates: concentrations at the EC50 values, p > 0.05; for effect on deposition of SIPC protein on the surface of the bioassay plates / effect on adjusted integrated density of anti-SIPC immunoreactive signals: 24 h; for effect on adjusted integrated density of anti-SIPC immunoreactive signals: indicated concentrations, unpaired two-tailed t-test with Welch's correction
Procedure: To test the substrate exploratory behaviour of A. amphitrite cyprids in the presence of selected metabolites, settlement bioassays were conducted by adding 10 cyprids into individual wells of a 24-well polystyrene sterile microplate (Orange Scientific, Braine l’Alleud, Belgium) containing 2 mL of ASW (25‰). These experiments were repeated twice with four replicates per experiment. Plates were covered and sealed with Parafilm® to avoid evaporation and incubated at 25 °C away from any light source for 24 h. Then, the 2 mL of ASW was aspirated from each well and all settled and non-settled cyprids were counted and removed. Wells were then blocked by incubation with 5% BSA in TBST (25 mM Tris-HCl, pH 7.5, 150 mM NaCl, 0.1% Tween 20) for 1 h at room temperature. Wells were then incubated for 1 h at room temperature with the mouse anti-SIPC monoclonal antibody at 1:100 dilution of the cloned cell line culture supernatant in TBST with 5% BSA, washed with TBST (3 × 5 min) and incubated with an HRP-conjugated anti-mouse antibody (1:1000, Cell Signaling Technology, Danvers, MA, USA) for 1 h at room temperature. Wells were then washed with TBST (3 × 5 min) and immunostaining was detected using the 20 × LumiGLO® chemiluminescence kit (Cell Signaling Technology, Danvers, MA, USA) in a Bio-Rad ChemiDoc XRS + Gel Photo Documentation System. To measure the relative intensity of immunoreactive spots on this format of Western blots, images were analyzed with ImageJ 1.52k (NIH, Bethesda, MD, USA), and the adjusted integrated density of the signals was calculated using the formula: Adjusted integrated density (IntDen) = IntDen of experimental region of interest (ROI)—(mean of background ROI × area of experimental ROI). Data were exported and statistically analyzed with GraphPad Prism v.6 using unpaired, two-tailed t-tests at p = 0.05, with Welch’s correction.

A. salina nauplii = assay: Artemia salina toxicity assay; type: in vivo; conditions: 24 and 48 h
How it was run: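 Instar I nauplii, hatched over 24 h in artificial seawater at 25 °C, exposed ten per well to compounds added in methanol for 48 h in the dark at 25 °C. Mortality scored as no appendage movement within 10 s; IC50/EC50 from normalized-response curve fits, three experiments with four replicates.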

Compound | effect on deposition of SIPC protein on the surface of the bioassay plates (A. amphitrite cyprids) | effect on adjusted integrated density of anti-SIPC immunoreactive signals (A. amphitrite cyprids) | toxicity against A. salina nauplii (in words) (A. salina nauplii) | effect on deposition of SIPC by the cyprids relative to control (ASW) (A. amphitrite cyprids; 10 μM)
CC1=C2CC[C@@](C)(Cl)[C@@H](Br)C[C@]2(C)[C@@H](C)[C@@H](Br)[C@@H]1O [Compound 9, perforenol] | no statistically significant effect | none of the two tested compounds (p > 0.05) affected |  | 
CC(C)[C@@H]1CC=C[C@H]2[C@H]3[C@](C)(CC[C@]12CBr)[C@@H](Br)CC[C@@]3(C)O [Bromosphaerol, reference compound] | no statistically significant effect | none of the two tested compounds (p > 0.05) affected | did not show any toxicity | did not affect deposition of SIPC
